Converted amounts (≈) assume the structure as drawn. Where two headings read alike, the source gives them in different places. Each block holds one compound with its values, some of them ahead of it. Where a SMILES comes first, the peptide text is derived from it. Bridges are numbered along the chain shown (N, C = ends). [ ]: non-standard residue; d: D form. The star is where a group is joined. X2 = NC[C@@H](CC(=O)*)c1cccc(-c2ccccc2)c1; X9 = CC(C)c1cccc([C@H](CN)CC(=O)*)c1; X12 = NC[C@H](CC(=O)*)c1cccc(Br)c1; X11 = NC[C@H](CC(=O)*)c1ccccc1Cl; Dab = NCC[C@H](N)C(=O)O; Abu = CC[C@H](N)C(=O)O; Dap = NC[C@H](N)C(=O)O
Assays:
[1] = system: E. coli CA58; assay type: cell-based
Method: (§1) The inoculum was prepared by making a direct suspension of isolated colonies (selected from an 18-24 hour Mueller-Hinton agar plate) adjusted to the 0.5 McFarland standard. […] The assays were performed in duplicate. […] Several of the compounds were subjected to multiple tests, and where this is the case, the MIC presented is the median value obtained. The MIC values are quoted in μg/mL.

[2] = system: K. pneumoniae CA64; assay type: cell-based
Method: as §1

[3] = system: P. aeruginosa CCUG 59347; assay type: cell-based
Method: as §1

[4] = system: A. baumannii ATCC BAA-747; assay type: cell-based
Method: (§2) The inoculum was prepared by making a direct suspension of isolated colonies (selected from an 18-24 hour Mueller-Hinton agar plate) adjusted to the 0.5 McFarland standard. […] The assays were performed in duplicate. […] The MIC values are quoted in μg/mL.

[5] = system: A. baumannii NCTC 13424; assay type: cell-based
Method: as §2

[6] = system: E. coli ATCC 25922; assay type: cell-based; conditions: cation-adjusted Mueller-Hinton Broth, 18-20 h, 35° C.
Method: as §2

[7] = system: K. pneumoniae ATCC 13822; assay type: cell-based
Method: as §2

[8] = system: P. aeruginosa ATCC 27853; assay type: cell-based; conditions: cation-adjusted Mueller-Hinton Broth, 18-20 h, 35° C.
Method: as §2

[9] = system: HK-2 cells; assay: In vitro renal cell toxicity assay (HK-2); assay type: cell-based
Method: The in vitro renal cell toxicity assay was performed according to the following protocol. […] Cells were seeded at 7,500 cells per well in 96-well plates and allowed to adhere overnight. […] Water and DMSO levels were kept constant at 5% and 0.5% respectively. The test compounds were incubated with cells for 24 h at 37° C. 5% CO2 in a humidified atmosphere. […] Media only background values were subtracted before the data was analysed using GraphPad Prism. Individual values were normalised to the vehicle control wells for each compound. Compound concentration values were plotted as log values to enable a dose-response curve to be fitted. The bottom of the curve was constrained to zero and IC50 values were determined. IC50 values are expressed relative to that for PMB in the same experiment. Where multiple determinations have been made, median values are presented.

[10] = Kidney drug level after subcutaneous dose in mouse; assay type: in vivo; conditions: mouse, in vivo, sc, 17.2 mg/kg
Method: Four hours after dosing the animals were euthanised and kidneys removed, trimmed of fat and connective tissue, weighed and immediately snap-frozen. After thawing at room temperature, pairs of kidneys from each animal were placed in 2 mL conical tubes containing pre-weighed ceria-stabilised zirconium oxide beads. […] After 10 min. centrifugation at 13,000 rpm and 6° C., 200 μl of the supernatants were transferred into glass inserts and analysed by LC-MS-MS.

[11] = Renal toxicity of Example 24 vs PMB after four doses in mouse; assay type: in vivo, mouse; conditions: mouse, in vivo, sc
Method: Immediately after the fourth dose mice were transferred to metabolic cages and urine collected for 24 h. for determination of urinary biomarkers. After urine collection mice were sacrificed for renal histopathology.
The urine biomarkers were normalized to urinary creatinine.

[12] = cation-adjusted Mueller-Hinton Broth, 18-20 h, 35° C.

Compound: CC(C)C[C@@H]1NC(=O)[C@@H](CC(C)C)NC(=O)[C@H](CCN)NC(=O)[C@@H](NC(=O)[C@H](CN)NC(=O)[C@@H](NC(=O)C[C@@H](CN)c2cccc(C(C)C)c2)[C@@H](C)O)CCNC(=O)[C@H]([C@@H](C)O)NC(=O)[C@H](CCN)NC(=O)[C@H](CCN)NC1=O [Example 16, (R)-4-amino-3-(3- isopropylphenyl) butanoyl-Thr-Dap- Cyclo[Dab-Dab-DLeu- Leu-Dab-Dab-Thr]] (X9-T[Dap][Dab][Dab][dL]L[Dab][Dab]T; lactam 3-C)
MIC E. coli CA58 [1, 12]: 16 µg/mL (≈ 14.3 µM)
MIC K. pneumoniae CA64 [2, 12]: 8 µg/mL (≈ 7.15 µM)
MIC P. aeruginosa CCUG 59347 [3, 12]: 1 µg/mL (≈ 0.894 µM)
MIC A. baumannii ATCC BAA-747 [4, 12]: 0.5 µg/mL (≈ 0.447 µM)
MIC A. baumannii NCTC 13424 [5, 12]: 0.5 µg/mL (≈ 0.447 µM)
MIC E. coli ATCC 25922 [6]: 0.5 µg/mL (≈ 0.447 µM)
MIC K. pneumoniae ATCC 13822 [7, 12]: 0.25 µg/mL (≈ 0.224 µM)
MIC P. aeruginosa ATCC 27853 [8]: 0.5 µg/mL (≈ 0.447 µM)

Compound: CC[C@@H]1NC(=O)[C@@H](CC(C)C)NC(=O)[C@H](CCN)NC(=O)[C@@H](NC(=O)[C@H](CN)NC(=O)[C@@H](NC(=O)C[C@@H](CN)c2cccc(Br)c2)[C@@H](C)O)CCNC(=O)[C@H]([C@@H](C)O)NC(=O)[C@H](CCN)NC(=O)[C@H](CCN)NC1=O [Example 33, (R)-4-amino-3-(3- bromophenyl)butanoyl- Thr-Dap-Cyclo[Dab- Dab-DLeu-Abu-Dab- Dab-Thr],] (X12-T[Dap][Dab][Dab][dL][Abu][Dab][Dab]T; lactam 3-C)
MIC E. coli CA58 [1, 12]: 64 µg/mL (≈ 56.8 µM)
MIC K. pneumoniae CA64 [2, 12]: 16 µg/mL (≈ 14.2 µM)
MIC P. aeruginosa CCUG 59347 [3, 12]: 0.5 µg/mL (≈ 0.444 µM)
MIC A. baumannii ATCC BAA-747 [4, 12]: 1 µg/mL (≈ 0.887 µM)
MIC A. baumannii NCTC 13424 [5, 12]: 1 µg/mL (≈ 0.887 µM)
MIC E. coli ATCC 25922 [6]: 0.5 µg/mL (≈ 0.444 µM)
MIC K. pneumoniae ATCC 13822 [7, 12]: 0.5 µg/mL (≈ 0.444 µM)
MIC P. aeruginosa ATCC 27853 [8]: 0.5 µg/mL (≈ 0.444 µM)

Compound: CC(C)C[C@@H]1NC(=O)[C@@H](Cc2ccccc2)NC(=O)[C@H](CCN)NC(=O)[C@@H](NC(=O)[C@H](CN)NC(=O)[C@@H](NC(=O)C[C@@H](CN)c2ccccc2Cl)[C@@H](C)O)CCNC(=O)[C@H]([C@@H](C)O)NC(=O)[C@H](CCN)NC(=O)[C@H](CCN)NC1=O [Example 4, (R)-4-amino-3-(2- chlorophenyl)butanoyl- Thr-Dap-Cyclo[Dab- Dab-DPhe-Leu-Dab- Dab-Thr]] (X11-T[Dap][Dab][Dab][dF]L[Dab][Dab]T; lactam 3-C)
MIC E. coli CA58 [1, 12]: 16 µg/mL (≈ 14 µM)
MIC K. pneumoniae CA64 [2, 12]: 16 µg/mL (≈ 14 µM)
MIC P. aeruginosa CCUG 59347 [3, 12]: 0.5 µg/mL (≈ 0.437 µM)
MIC A. baumannii ATCC BAA-747 [4, 12]: 1 µg/mL (≈ 0.874 µM)
MIC A. baumannii NCTC 13424 [5, 12]: 1 µg/mL (≈ 0.874 µM)
MIC E. coli ATCC 25922 [6]: 0.5 µg/mL (≈ 0.437 µM)
MIC K. pneumoniae ATCC 13822 [7, 12]: 0.25 µg/mL (≈ 0.218 µM)
MIC P. aeruginosa ATCC 27853 [8]: 0.25 µg/mL (≈ 0.218 µM)

tissue level at time at 4 h [10]: 203000 ng/g
MIC E. coli CA58 ([1]; CA58): 4 µg/mL (≈ 3.56 µM)
MIC K. pneumoniae CA64 ([2]; CA64): 16 µg/mL (≈ 14.2 µM)
MIC P. aeruginosa CCUG 59347 ([3]; CCUG 59347): 0.25 µg/mL (≈ 0.222 µM)
MIC A. baumannii ATCC BAA-747 ([4]; ATCC BAA-747): 0.03 µg/mL (≈ 0.0267 µM)
MIC A. baumannii NCTC 13424 ([5]; NCTC 13424): 0.06 µg/mL (≈ 0.0534 µM)
MIC K. pneumoniae ATCC 13822 ([7]; ATCC 13822): 0.25 µg/mL (≈ 0.222 µM)
Compound: CC[C@@H]1NC(=O)[C@@H](CC(C)C)NC(=O)[C@H](CCN)NC(=O)[C@@H](NC(=O)[C@H](CN)NC(=O)[C@@H](NC(=O)C[C@H](CN)c2cccc(-c3ccccc3)c2)[C@@H](C)O)CCNC(=O)[C@H]([C@@H](C)O)NC(=O)[C@H](CCN)NC(=O)[C@H](CCN)NC1=O [Example 24, (S)-3-(1,1′-biphenyl- 3-yl)-4-aminobutanoyl-Thr- Dap-Cyclo[Dab-Dab- DLeu-Abu-Dab-Dab- Thr]] (X2-T[Dap][Dab][Dab][dL][Abu][Dab][Dab]T; lactam 3-C)
HK-2 rel to PMB [9]: 21.8
Basophilic Tubules (cortex) (animals affected) ([11]; 25 mg/kg): 0/5
Mitotic Figures increased (animals affected) ([11]; 25 mg/kg): 0/5
Tubular Degeneration/necrosis (histopathology, animals affected) ([11]; 25 mg/kg): 0/5
Urine Albumin ([11]; 25 mg/kg): 4.78
Urine Cystatin C ([11]; 25 mg/kg): 31.04
Urine Kim-1 ([11]; 25 mg/kg): 27.61
Urine NGAL ([11]; 25 mg/kg): 0.00
Urine β-2 microglobulin ([11]; 25 mg/kg): 0.05
Basophilic Tubules (cortex) (animals affected) ([11]; 50 mg/kg): 2/5 (2 min)
Mitotic Figures increased (animals affected) ([11]; 50 mg/kg): 2/5 (2 min)
Tubular Degeneration/necrosis (histopathology, animals affected) ([11]; 50 mg/kg): 2/5 (2 min)
Urine Albumin ([11]; 50 mg/kg): 6.95
Urine Cystatin C ([11]; 50 mg/kg): 33.97
Urine Kim-1 ([11]; 50 mg/kg): 171.59
Urine NGAL ([11]; 50 mg/kg): 0.63
Urine β-2 microglobulin ([11]; 50 mg/kg): 13.22
Basophilic Tubules (cortex) (animals affected) ([11]; 75 mg/kg): 5/5 (2 min/
Mitotic Figures increased (animals affected) ([11]; 75 mg/kg): 5/5 (5 min)
Tubular Degeneration/necrosis (histopathology, animals affected) ([11]; 75 mg/kg): 5/5 (1 min/
Urine Albumin ([11]; 75 mg/kg): 10.93
Urine Cystatin C ([11]; 75 mg/kg): 81.44
Urine Kim-1 ([11]; 75 mg/kg): 1,203.41
Urine NGAL ([11]; 75 mg/kg): 3.71
Urine β-2 microglobulin ([11]; 75 mg/kg): 68.51
